Reference: patent EP0528583A1, “Isolation and structure of the cell growth inhibitory cycloheptapeptide axinastatin 1” (ARIZONA BOARD OF REGENTS, priority 1991, dated 1993)
Residues, ends and D or L forms follow the SMILES beside them.

Key:
[1] = system: P388 lymphocytic leukemia; test: In vivo P388 (PS) lymphocytic leukemia life extension, NCI protocol; set-up: species or system mice; settings: in vivo P388 lymphocytic leukemia system; dose not given
Excerpt: (§1) The isolation and purification methods chosen can be monitored at each step by performing in-vitro and/or in-vivo antitumor tests as described by R. I. Geran, N.H. Greenberg, M. M. MacDonald, A.M. Schumacher and B. S. Abbot in Cancer Chemotherapy Rep., Part 3, Vol 3: 1-103 (1972); and by Schmidt, J. M.; Pettit, G. R. in Experientia 1978, 34: 659-660. Such tests include the determination of the concentration of active material required to inhibit the growth of tumor cells in culture, (e.g. the concentration required to inhibit growth by 50 percent or the E.D.₅₀) and of the dose of active material required to prolong the life of mice bearing transplanted tumors ("life extension").

[2] = system: NCI murine P388 lymphocytic leukemia cell line; test: P388 (PS system) lymphocytic leukemia cell growth inhibition in culture, NCI protocol; assay type: cell-based; settings: concentration required to inhibit growth of tumor cells in culture by 50 percent
Excerpt: as §1

CC(C)[C@@H]1NC(=O)[C@H](Cc2ccccc2)NC(=O)[C@@H]2CCCN2C(=O)[C@H](CC(N)=O)NC(=O)[C@H](C(C)C)NC(=O)[C@@H]2CCCN2C(=O)[C@H](C(C)C)NC1=O [axinastatin 1, cyclo (Asn-Pro-Phe-Val-Val-Pro-Val)] (cyclo(FVVPVNP))
life extension [1]: 20% | PS ED₅₀ [2]: 0.21 µg/mL
